Test results: US8507440B2, “Protein kinase C peptides for use in withdrawal” (The Board of Trustees of the Leland Stanford Junior …, priority 2002, dated 2013)
Read-outs that look alike come from different tables or passages of the source.

Experiments:
[1] = system: 7 day old and 21 day old rats; test: ethanol withdrawal thermal hyperalgesia testing (paw withdrawal latency); format: in vivo, rat; conditions: 4 g/kg 15% EtOH
[2] = system: 7 day old and 21 day old rats; test: ethanol withdrawal mechanical allodynia testing (von Frey threshold withdrawal force); format: in vivo, rat
[3] = system: εPKC
Protocol: (§1) To determine if EtOH alters the expression and cellular localization of εPKC and γPKC, immunohistochemistry was performed on L4/5 dorsal root ganglion (DRG) and L4/5 lumbar spinal cord sections, as described in Example 4. Rat at postnatal days 7 and 21, treated with saline or 4 g/kg 15% EtOH, were euthanized at 2, 4, or 6 hours post injection for isolation of the lumbar spinal cords.
(§2) Animals administered a single dose of 4 g/kg 15% EtOH or saline (i.p.) were deeply anesthetized with halothane and euthanized at 2, 4, or 6 hours post injection by transcardiac perfusion (phosphate-buffered saline wash, followed by 4% formaldehyde in PBS, pH 7.4). Following perfusion, lumbar spinal cord and L4/L5 dorsal root ganglia (DRG) were isolated and post-fixed for 3 hours in 4% formaldehyde solution followed by cryoprotection in 30% sucrose/PBS at 4° C. Sections were freeze-mounted in OCT-embedding medium on cork blocks and stored at −80° C. until analysis. For spinal cord sections, free-floating immunohistochemistry was performed on 30 μm L4-L5 spinal sections. Dorsal root ganglia were cut on a cryostat at 10 μm and slide mounted. Slides were heated overnight at 32° C. Immunohistochemistry was performed utilizing an avidin-biotin complex (ABC) technique as previously described (Sweitzer et al., Brain Res., 829(1-2):209-221 (1999)). Rabbit polyclonal antibodies to γPKC (1:500 from Santa Cruz) or εPKC (1:1,000 from Santa Cruz) were used. Immunohistochemistry was scored blinded to experimental conditions.
(§3) For both spinal cord tissues and DRG, densitometry using ImageJ software was performed on at least three sections from each of three individual animals.

[4] = system: γPKC
Protocol: as §1, §2, §3

[5] = system: N-methyl-D-aspartate (NMDA) receptor currents; test: alcohol withdrawal hyperresponsiveness of NMDA-evoked currents in lumbar spinal cord slice motor neurons; format: cell-based, rat; conditions: 100 mM EtOH, n=11 motor neurons
Description: Spinal cords were taken from young rats, and slices of these cords were made and placed in artificial cerebrospinal fluid for patch clamp electrophysiological analysis, to characterize the ability of γPKC peptides to mediate alcohol withdrawal hyperresponsiveness of N-methyl-D-aspartate (NMDA) receptor currents. FIG. 7A is a schematic diagram of the technique, where a lumbar spinal cord slice 10 is shown. The placement of a recording electrode 12 and a pipette 14 for application of NMDA relative to a motor neuron 16 is illustrated.
Sprague-Dawley rats at postnatal day 7-10 were anesthetized with halothane, decapitated, and the spinal cords were quickly removed. Slices […] thick were sectioned from the lumbar region. Whole cell voltage clamp recordings were made from visually-identified motor neurons using infrared video microscopy, a 60× water immersion lens, and a MultiClamp 700A patch clamp amplifier. Cells were held at a holding potential of −60 mV in artificial cerebrospinal fluid (ACSF) containing bicuculline methiodide ([…]), strychnine ([…]), and tetrodotoxin ([…]). Postsynaptic currents were evoked by direct pressure application of 2 mM N-methyl-D-aspartate (NMDA) from a pipette positioned near the recorded cell at 1-2 min intervals, as illustrated in FIG. 7A. The area of evoked currents during and following 100 mM ethanol (EtOH) application was measured and normalized to the average baseline current area during the 10 minutes preceding EtOH application. Data are expressed as mean +/−SEM: Statistical significance was determined by one-way ANOVA followed by Dunn's or Tukey's multiple comparison test with significance set at p<0.05.

[6] = in vivo; conditions: rat, 4 g/kg
[7] = for maximal blood EtOH concentration: 30 minutes post 4 g/kg 15% EtOH; for maximal EtOH concentration in spinal cord: 4 g/kg 15% EtOH
[8] = target: T1, γPKC (Rattus norvegicus, UniProt P63319); format: cell-based; conditions: after application of ethanol 100 mM; control about 14
T1 construct: from tissue; host or cells: lumbar spinal cord slices of postnatal day 7-10 Sprague-Dawley rats
Protocol: Fluorescence immunocytochemical studies were performed on the spinal cord sections, as described in Example 3. The sections were incubated with an anti-γPKC antibody and an anti-neuronal antibody to identify neurons. […] Translocation of γPKC was quantified by counting the number of cells with γPKC localized to the nucleus before (control) and after application of ethanol, as well as after washing with artificial cerebrospinal fluid. […] Two to three sections per animal were counted.
Fluorescence immunocytochemical studies were performed on spinal cord sections […] from control slices (perfused with ACSF for 70 minutes) and EtOH treated slices (perfused with ACSF for 30 minutes followed by 20 min 100 mM EtOH and 20 min wash with ACSF). The sections were incubated with a rabbit anti-PKCg polyclonal antibody (1:500) overnight at 4° C. In some cord sections, a mouse anti-neuronal nuclei monoclonal antibody (NeuN, 1:750) was added to identify neurons. After several washes with ACSF, the sections were labeled for 2 hours at room temperature with fluorescein-labeled secondary antibodies (1:500). Double immunofluorescence was assessed with a laser confocal microscope.

[9] = 21 day old rats, 4 g/kg and 0.5 g/kg 15% EtOH

normalized NMDA current (INMDA) area after application of alcohol [5]: increases | half-life ([6]; spinal cord, ip, T ½ Early, 7 day old rat, 4 g/kg 15% EtOH i.p.): 1.6 h | half-life ([6]; spinal cord, ip, T ½ Early, 21 day old rat, 4 g/kg 15% EtOH i.p.): 1.5 h | half-life ([6]; spinal cord, ip, T ½ Late, 7 day old rat, 4 g/kg 15% EtOH i.p.): 11.5 h | half-life ([6]; spinal cord, ip, T ½ Late, 21 day old rat, 4 g/kg 15% EtOH i.p.): 11.7 h | half-life ([6]; whole blood, intraperitoneal, extension of blood late phase half-life of 21 day old beyond 7 day old rats, blood): 4 h | half-life ([6]; whole blood, ip, T ½ Early, Blood, 7 day old rat, 4 g/kg 15% EtOH i.p.): 1.9 h | half-life ([6]; whole blood, ip, T ½ Early, Blood, 21 day old rat, 4 g/kg 15% EtOH i.p.): 1.7 h | half-life ([6]; whole blood, ip, T ½ Late, Blood, 7 day old rat, 4 g/kg 15% EtOH i.p.): 18.1 h | half-life ([6]; whole blood, ip, T ½ Late, Blood, 21 day old rat, 4 g/kg 15% EtOH i.p.): 22.5 h | time of peak spinal cord EtOH level ([7]; 7 day old and 21 day old rats, post injection): 30 min | maximal blood EtOH concentration ([7]; 7 day old pups): 5.91 ± 0.46 µg/mL | maximal EtOH concentration in spinal cord ([7]; 7 day old rats): 14.8 μg/mg tissue | maximal EtOH concentration in spinal cord ([7]; 21 day old rats): 11.4 μg/mg tissue | maximal blood EtOH concentration ([7]; 21 day old rats): 5.67 ± 0.60 µg/mL | time of peak blood EtOH concentration ([7]; both 7 day old and 21 day old rats, post-ethanol injection): 30 min | spinal cord later-phase half-life relative to half life for blood EtOH levels ([7]; rat, in vivo): 50% | number of cells having γPKC localized in the nucleus [8]: about 6
SMILES: CCO [EtOH, ethanol]
thermal paw withdrawal latency after ethanol ([1]; 7 day old rats, 6 hours): Thermal hyperalgesia as evidenced by a decrease in paw withdrawal latency, was observed | thermal paw withdrawal latency after ethanol ([1]; 21 day old rats, entire time period): did not exhibit a decrease in paw withdrawal latency | threshold withdrawal force after ethanol ([2]; 7 day old rats, 1 g/kg 15% EtOH): did not significantly alter the threshold withdrawal force | paw threshold withdrawal force after ethanol ([2]; 7 day old rats, 4 g/kg 15% EtOH, 6 hours and 8 hours post injection): exhibited mechanical allodynia | threshold withdrawal force after ethanol ([2]; 7 day old rats, 4 g/kg 15% EtOH, two hour test interval): slight but insignificant increase in threshold withdrawal force | mechanical thresholds after ethanol [2, 9]: maximally decreased mechanical thresholds at 6 hours post EtOH injection | time withdrawal thresholds remained below baseline [2, 9]: up to 72 hours | cells staining positive for εPKC ([3]; 7 day old rats, 2 hour exposure to 4 g/kg 15% EtOH): the percentage of cells staining positive for εPKC increased | cells staining positive for εPKC and staining intensity ([3]; 21 day old rats, 4 g/kg 15% EtOH): did not result in an increase in the number of positive staining cells or in the staining intensity within positively stained cells | γPKC cellular localization ([4]; 2 hours post-EtOH injection): had translocated to the plasma membrane | number of somata staining positive for γPKC above saline control levels ([4]; 7 day old rats, lamina II, 6 hours post injection of 4 g/kg 15% EtOH): 4 fold | γPKC staining intensity ([4]; 21 day old rats, 2 to 6 hours post-EtOH injection): γPKC staining intensity increased
